Measured values: patent US20090215812A1, “BIOMARKERS FOR EVALUATING LIKELIHOOD OF TUMOR SENSITIVITY TO AN MTOR INHIBITOR” (ARIAD GENE THERAPEUTICS, INC., priority 2005, published 2009)

Key:
[1] = system: 14 human tumor-derived cell lines; experiment: in vitro proliferation assays on panel of tumor cell lines; assay type: cell-based
Protocol: (§1) A series of in vitro proliferation assays were performed on 14 human tumor-derived cell lines exposed to AP23573 at concentrations ranging from 0.01 nM to […]. Cells were plated into 96-well plates (between 750 and 5000 cells per well as per the table below), in cell culture medium containing serial dilutions of AP23573, or in the absence of AP23573 as a control, and were then incubated for 3 days.
(§2) At the end of the incubation, the number of cells in each well (cell viability) was determined using a CellTiter 96® Aqueous One Solution Cell Proliferation metabolic activity assay kit (Promega). This assay is based on the use of a reagent that monitors the total reducing environment of a population of cells. The quantity of reduced products, which is determined spectrophotometrically, is directly proportional to the number of viable cells in the culture. The percentage of cells remaining after treatment with each concentration of AP23573 was then determined relative to the number of cells remaining in the untreated wells.
For each cell line the percentage cells remaining after treatment with AP23573 reached a plateau between 1 and 10 nM. Thus the inhibitory effect of AP23573 on cell proliferation was calculated by taking the average of the percentage of cells remaining at the 10, 33 and 100 nM concentration levels. […]

MDA-453 = experiment: in vitro proliferation assay (CellTiter 96 Aqueous One Solution); assay type: cell-based, human; settings: average of 10, 33 and 100 nM, 3 days incubation, relative to untreated wells
Protocol: as §1, §2
(§3) For each cell line the percentage cells remaining after treatment with AP23573 reached a plateau between 1 and 10 nM. Thus the inhibitory effect of AP23573 on cell proliferation was calculated by taking the average of the percentage of cells remaining at the 10, 33 and 100 nM concentration levels. A lower percentage of cells remaining reflects a larger inhibitory effect of AP23573. The experiment was performed two or three times for each cell line and the results averaged.

HEC1A = experiment: as above; assay type: cell-based, human; settings: average of 10, 33 and 100 nM, 3 days incubation, relative to untreated wells
Protocol: as §1, §2, §3

HCT116 = experiment: as above; assay type: cell-based, human
Protocol: as §1, §2, §3

MDA-468 = experiment: as above; assay type: cell-based, human; settings: average of 10, 33 and 100 nM, 3 days incubation, relative to untreated wells
Protocol: as §1, §2, §3

MDA-435S = experiment: as above; assay type: cell-based, human; settings: average of 10, 33 and 100 nM, 3 days incubation, relative to untreated wells
Protocol: as §1, §2, §3

BT474 = experiment: as above; assay type: cell-based, human; settings: average of 10, 33 and 100 nM, 3 days incubation, relative to untreated wells
Protocol: as §1, §2, §3

PC3 = experiment: as above; assay type: cell-based, human; settings: average of 10, 33 and 100 nM, 3 days incubation, relative to untreated wells
Protocol: as §1, §2, §3

SKOV3 = experiment: as above; assay type: cell-based, human; settings: average of 10, 33 and 100 nM, 3 days incubation, relative to untreated wells
Protocol: as §1, §2, §3

SKBR3 = experiment: as above; assay type: cell-based, human; settings: average of 10, 33 and 100 nM, 3 days incubation, relative to untreated wells
Protocol: as §1, §2, §3

AN3CA = experiment: as above; assay type: cell-based, human; settings: average of 10, 33 and 100 nM, 3 days incubation, relative to untreated wells
Protocol: as §1, §2, §3

HT1080 = experiment: as above; assay type: cell-based, human
Protocol: as §1, §2, §3

MCF7 = experiment: as above; assay type: cell-based, human; settings: average of 10, 33 and 100 nM, 3 days incubation, relative to untreated wells
Protocol: as §1, §2, §3

DU145 = experiment: as above; assay type: cell-based, human; settings: average of 10, 33 and 100 nM, 3 days incubation, relative to untreated wells
Protocol: as §1, §2, §3

ES2 = experiment: as above; assay type: cell-based, human; settings: average of 10, 33 and 100 nM, 3 days incubation, relative to untreated wells
Protocol: as §1, §2, §3

sarcoma = experiment: ongoing clinical trial of AP23573 in sarcoma; assay type: in vivo, human; settings: number of patients
Description: The experiment is repeated several times using either mixed sets of samples that included samples from tumors of various types or using sets of samples from a single tumor type (prostate cancer, leiomyosarcoma, osteosarcoma). Some of the samples are obtained from an ongoing clinical trial of AP23573 in sarcoma, results of which are presented below: […]

[2] = average of 10, 33 and 100 nM, 3 days incubation, relative to untreated wells

Compound: CO[C@H]1C[C@@H]2CC[C@@H](C)[C@@](O)(O2)C(=O)C(=O)N2CCCC[C@H]2C(=O)O[C@H]([C@H](C)C[C@@H]2CC[C@@H](OP(C)(C)=O)[C@H](OC)C2)CC(=O)[C@H](C)/C=C(\C)[C@@H](O)[C@@H](OC)C(=O)[C@H](C)C[C@H](C)/C=C/C=C/C=C/1C [AP23573]
- sensitivity to AP23573 ([1]; HEC1A, BT474, MDA468, DU145, HCT116 (lower FKBP12 expression)): lower levels of sensitivity
- sensitivity to AP23573 ([1]; HT1080, PC3, ES2, SKBR3 (relatively high FKBP12 expression)): relatively high levels of sensitivity
- Percent Cells Remaining (MDA-453): 58%
- Percent Cells Remaining (HEC1A): 70%
- Percent Cells Remaining (HCT116; [2]): 94%
- sensitivity to AP23573 (HCT116; low FKBP12 expression level): relatively resistant
- Percent Cells Remaining (MDA-468): 77%
- Percent Cells Remaining (MDA-435S): 68%
- Percent Cells Remaining (BT474): 80%
- Percent Cells Remaining (PC3): 51%
- Percent Cells Remaining (SKOV3): 61%
- Percent Cells Remaining (SKBR3): 55%
- Percent Cells Remaining (AN3CA): 45%
- Percent Cells Remaining (HT1080; [2]): 37%
- sensitivity to AP23573 (HT1080; high FKBP12 expression level): relatively sensitive
- Percent Cells Remaining (MCF7): 55%
- Percent Cells Remaining (DU145): 81%
- Percent Cells Remaining (ES2): 63%
- CR/PR (complete response / partial response) (sarcoma; Bone Cohort (19)): 3
- PD (progressive disease) (sarcoma; Bone Cohort (19)): 5
- CR/PR (complete response / partial response) (sarcoma; Leiomyosarcoma (18)): 0
- PD (progressive disease) (sarcoma; Leiomyosarcoma (18)): 6
- CR/PR (complete response / partial response) (sarcoma; Liposarcoma (13)): 0
- PD (progressive disease) (sarcoma; Liposarcoma (13)): 5
- CR/PR (complete response / partial response) (sarcoma; Other Sarcoma (20)): 0
- PD (progressive disease) (sarcoma; Other Sarcoma (20)): 7
